The source of these data is EP2476410A1, “An analgesic peptide-containing composition for transbuccal administration” (priority 2011, dated 2012).

Data set [1] relates to Swiss albino mice. Kind of data set: Acetic acid-induced writhing model. It is filed as in vivo. Conditions: 1 mg/kg, intraperitoneal. As to the method:
Swiss albino mice (20-25 g, male) were administered with the peptide and at the appropriate post- dose time acetic acid (0.9% solution) was injected intraperitoneally (10 ml/kg). The mice were then placed in a transparent observer box and the total number of writhes per animal in the 15 min period after injection of acetic acid was recorded. A writhe is typically characterized by contractions of the abdominal musculature followed by extension of the hind limbs. Statistical comparison was done by either Student's t-test or one-way ANOVA.
At 1 h post administration time, acetic acid (0.9% solution) was injected intraperitoneally and the total number of writhes per animal was recorded, as described above. Upon completion of the experiment the animals were sacrificed and skull exposed. The accuracy of the injection was confirmed via injection of methyl-blue dye into the injection aperture left by the original injection. Only results from mice showing coloration of the ventricles are accepted.

In data set [2] the test system is Swiss albino mice. Briefly: Spontaneous locomotor activity. It is filed as in vivo. Particulars: 50 mg/kg, intraperitoneal, between 60 min and 220 min post drug administration. As to the method: Swiss albino mice (∼30 - 40 g) were first placed into their respective chambers with a 20 min pre-treatment recording. Only mice showing at least 50 counts / 5 min are used in the experiments. Mice were administered saline (control), peptide (5 or 50 mg/kg) or morphine (50 mg/kg). Experimenters were blind to the identity of the drug solutions. After drug administration, the animals were placed into their individual chambers and their spontaneous locomotor activity was recorded by video tracking and the data were recorded for a period of 4 h. Statistical comparison was done by 2-way ANOVA.

For data set [3], the system named is Swiss albino mice. Briefly: GI motility (charcoal transit distance). It is filed as in vivo. Conditions: 0.5 to 50 mg/kg intraperitoneal, 30 min post-drug. As to the method:
Swiss albino mice (30-35 g) were injected with saline, the peptide (5 mg/kg, 50 mg/kg intraperitoneal) or morphine (0.5 mg/kg, 5 mg/kg, 50 mg/kg intraperitoneal). The experimenters are blind to the identity of the solutions. All mice were administered 5 mg charcoal (0.1 ml of 50 mg/ml charcoal solution) via oral gavage immediately after drug administration. At 30 min post- drug / charcoal administration, the mice were sacrificed by cervical dislocation and the GI tract was exposed and the location of the charcoal identified. The distance the charcoal traveled in the intestine from the stomach was measured and expressed as % of total length of the GI tract.

For data set [4], the system named is Swiss albino mice. Briefly: Rotarod test. Format: in vivo. Conditions: 20 mg/kg, subcutaneous. As to the method:
Swiss albino mice (∼20-30 g) were first trained on the rotarod, which accelerated from 0-20 rpm over 5 min, prior to the experiment. Only mice that were capable of staying on the rotarod for the entire 5 min period were used in this experiment. Mice were either administered with the peptide (1 or 10 mg/kg, sublingual), or morphine (20 mg/kg, subcutaneous). After drug administration, the animals are placed on the rotarod and the time taken for the mice to slip was recorded (up to 5 min), and subsequently at 1h, 2h and 3h post peptide, and at 30 min, 1h30 min and 2h30 min post morphine. Statistical comparison was done by either Student's t-test or one-way ANOVA.
(In the rotarod test animals must keep their balance on a rotating rod.)

Data set [5] deals with Swiss albino mice. Kind of data set: Hot plate model. Format: in vivo. Particulars: intraperitoneal administration, 30 min post-dose, positive control.
The subject of data set [6] is rats. Briefly: Elevated-plus maze test. Format: in vivo. Conditions: compared to DMSO-controls. An excerpt: The Elevated-Plus Maze Test is generally used to assess anxiety level of rodents due to their natural aversion for height. Two opposite arms of the elevated-plus maze are enclosed by high walls (closed arms) while the other two are not (open arms). The test animals (rats) naturally prefer and spend more time in the closed arms.

Data set [7] concerns rats. Kind of data set: Open-field test (anxiety score). It is filed as in vivo. Conditions: positive control. An excerpt:
The open field test is generally used to assess anxiety level of rodents due to their natural aversion of open space and thus their preference to stay near the side rather than venturing to the more open central part of the open field.
The open field was divided into 16 equal size squares (25 x 25 cm). The 4 squares at the centre are assigned a low anxiety score (0) while those at the 4 corners are assigned a high anxiety score (2). The remaining 8 squares are assigned a medium score (1). A rat entering each square will be given the score assigned to that square. The sum total obtained within the 5-min test period divided by the number of squares entered is the anxiety score for that rat. Diazepam was used as positive control. Statistical comparison was done by Student's t-test.

The conditions of data set [8]: cited from earlier work.
[9] abbreviates: sublingual route (oxytocin in physiological saline solution).

“Also recorded” adds a separate entry of the source. Like-named read-outs stand apart in the source and are kept apart here. Marks after values point to notes of the source that are not given here.

For orientation: ED50 means the dose that gives a 50% effect, or the effect in half of the subjects. A lower ED50 goes with an effect at a small dose. One may read the bioavailability as dose-corrected exposure relative to a reference, in per cent.

Take `CN1CC[C@]23c4c5ccc(O)c4O[C@H]2[C@@H](O)C=C[C@H]3[C@H]1C5` [Morphine, morphine]: in the data set with Swiss albino mice [1], the “Time to first writhe” value was 190.75* % saline control, the “Total writhes in 15 min” value was 38.18* % saline control, the “Writhes in first 5 min” value is on record as 12.5* % saline control and the “Writhes in subsequent 10 min” value is listed as 48.56* % saline control. Besides, the locomotive activities result in the data set on Swiss albino mice [2] is recorded as “significant increase in locomotive activities”. For the same molecule, the GI transit distance result with Swiss albino mice [3] was “dose-dependently decreased GI motility; also recorded: dose dependent inhibitory effect”. In the data set with Swiss albino mice [4] (30 min, 1h30 min and 2h30 min post dose), the “rotarod performance (time to slip)” value is recorded as “No statistical significant effects”. The “rotarod performance (time to slip)” value in the data set on Swiss albino mice [4] (30 min post drug administration, p=0.056) is on record as “near significant decrease in performance”. In the data set on Swiss albino mice [5] (Mus musculus, ip, 0.5 h), the ED50 is 0.82 mg/kg. Also, the Emax with Swiss albino mice [5] was 250 % of pre-dose latency.
On to `CN1C(=O)CN=C(c2ccccc2)c2cc(Cl)ccc21` [diazepam], for which the “times spent in open and closed arms” value with rats [6] was “reversed the times spent in open and closed arms”. In addition, in the data set on rats [7], the anxiety score result was “decreased the anxiety score significantly”.
As to desmopressin, the bioavailability entry in data set [8] (setting [9]) was “about 0.25%”.
Regarding oxytocin, the bioavailability in data set [8] (formulation with 0.75% w/w sodium taurocholate (tablet form)) was 27%; in data set [8] (setting [9]), 0.007-0.07%; in data set [8] (sublingual route (oxytocin in physiological saline solution), listed as Oxytocin) it was 0.007 - 0.07%.
